Measurements as given in paper PMC7679387, “VZHE-039, a novel antisickling agent that prevents erythrocyte sickling under both hypoxic and anoxic conditions” (Scientific Reports, 2020).
Entries after “also recorded” stand apart in the source; their conditions may differ. Read-outs that look alike come from different tables or passages of the source.

Legend:
Hb [1] = target: T1, Hb (Homo sapiens, UniProt P69905); design: method as in PMID 30289405; details: previously observed, cited from earlier work
T1 construct: whole blood suspensions from subjects with homozygous SCD (Hct of 20%); from tissue; host or cells: whole blood / red blood cells of patients with homozygous SS sickle cell disease; lysate for HPLC and OEC
T1 sequence (P69905 2-142): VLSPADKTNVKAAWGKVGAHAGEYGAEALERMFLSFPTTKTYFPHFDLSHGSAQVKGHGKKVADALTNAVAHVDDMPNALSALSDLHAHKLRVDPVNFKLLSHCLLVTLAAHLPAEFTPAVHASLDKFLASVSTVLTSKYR
T1 sequence (P68871 with tags, fused parts or gaps E7V partner): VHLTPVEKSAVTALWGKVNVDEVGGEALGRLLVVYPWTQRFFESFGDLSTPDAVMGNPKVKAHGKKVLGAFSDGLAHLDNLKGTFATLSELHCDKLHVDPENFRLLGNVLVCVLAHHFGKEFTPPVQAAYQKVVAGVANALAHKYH

HbA = target: T2, HbA (Homo sapiens, UniProt P69905); assay: In vitro time-dependent Hb oxygen equilibrium study using normal whole blood (tonometry); format: cell-based; details: 2 mM, Hct 30%, 37 °C
T2 construct: fresh normal adult whole blood (Hct of 30%); from tissue; host or cells: normal adult whole blood (red blood cells)
T2 sequence (P69905 2-142 limits assumed): as the sequence (P69905 2-142) above
T2 sequence (P68871 2-147 partner limits assumed): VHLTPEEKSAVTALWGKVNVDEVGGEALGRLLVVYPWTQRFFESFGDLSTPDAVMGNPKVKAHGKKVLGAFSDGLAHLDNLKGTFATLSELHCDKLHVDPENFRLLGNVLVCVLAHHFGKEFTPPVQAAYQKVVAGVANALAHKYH
Source text: The antisickling activity of aromatic aldehydes is dependent on Schiff-base interaction between the aldehyde moiety and the Hb αVal1 amines (Schiff-base adduct) and the increase in the protein affinity for oxygen[30]–[40]. […] To overcome this pharmacologic limitation, Tucaresol and Voxelotor, two potent antisickling agents utilized a ortho-hydroxyl moiety (relative to the aldehyde group) on the benzaldehyde ring to form intramolecular hydrogen-bond interaction with the aldehyde group to form hemiacetal-like moiety, which led to significant reduction in oxidative metabolism of the aldehyde[28],[50]. […] VZHE-039, however, incorporates this ortho-hydroxyl moiety on the benzene ring, which is expected to increase its oxidative metabolic stability. This was tested by incubating 2 mM of VZHE-039 (with vanillin and TD-7 as controls) with fresh normal adult whole blood (Hct of 30%) at 37 °C as a surrogate measure of oxidative metabolism. At defined time points (1, 4, 8, 12 and 24 h), aliquot samples were drawn, and subsequently analyzed for their P50-shifts relative to the initial P50 value, using three-point tonometry. In parallel, an untreated control sample was also assessed to control for any time-dependent, but drug-independent changes in P50 values. […] These findings confirm the importance of the ortho-hydroxyl group in aromatic aldehydes in preventing or reducing enzymatic metabolism of aldehyde in RBCs.
Normal whole blood samples (hematocrit 30%) in the absence (control) or presence of 2 mM concentration VZHE-039 (solubilized in DMSO) were incubated at 37 °C for 24 h with shaking (at 140 rpm). At 1, 4, 8, 12 and 24 h time intervals, aliquots of this mixture were removed and then subjected to OEC analysis using tonometry as previously described. Vanillin and TD-7 were used as positive controls, while DMSO was tested as negative control. Briefly, the compound-treated blood samples were incubated in IL 237 tonometers (Instrumentation Laboratories, Inc. Lexington, MA) for approximately 10 min at 37 °C, and allowed to equilibrate at oxygen tensions 6, 20, and 40 mmHg. The samples were then aspirated into an ABL 700 Automated Blood Gas Analyzer (Radiometer) to determine the pH, partial pressure of CO2 (pCO2), partial pressure of oxygen (pO2), and Hb oxygen saturation values (SO2). The measured values of pO2 (mmHg) and SO2 at each pO2 value were then subjected to a non-linear regression analysis using the program Scientist (Micromath, Salt Lake City, UT) to estimate P50 as previously reported.

HbS [2] = target: T3, HbS (Homo sapiens, UniProt P69905); design: method as in PMID 30289405; details: previously observed, cited from earlier work
T3 construct: whole blood suspensions from subjects with homozygous SCD (Hct of 20%); from tissue; host or cells: whole blood / red blood cells of patients with homozygous SS sickle cell disease; lysate for HPLC and OEC
T3 sequence (P69905 2-142): as the sequence (P69905 2-142) above
T3 sequence (P68871 with tags, fused parts or gaps E7V partner): as the sequence (P68871 with tags, fused parts or gaps E7V partner) above

SS cells [3] = tested on: SS cells; design: method as in PMID 30289405; details: previously observed, cited from earlier work
SS cells [4] = assay: Antisickling activity under anoxia (100% N2); format: cell-based, human; details: 2 mM, 100% N2 gas, 30 min
Source text: Therefore, another objective in the targeted design of VZHE-039 was to complement its O2-dependent antisickling activity—common to this class of aromatic aldehydes—with an improved O2-independent antisickling activity through proximity-enhanced auxiliary interactions with the αF-helix. Findings from the VZHE-039 crystallographic studies indicate that we achieved the structural objective of enhanced interactions between the methylhydroxy substituent and the αF-helix. We further asked whether these enhanced interactions would translate to an improvement in the O2-independent antisickling activity—as hypothesized. We therefore explored the potential O2-independent activity of VZHE-039, by testing its antisickling properties under complete deoxygenated/anoxic conditions (i.e., 100% N2). […] For internal control purposes, aliquots from samples used for testing for antisickling studies at 2.5% O2 (see above) were also used for testing the antisickling effect of these compounds under 100% N2 gas, therefore, helping elucidate the antisickling effects due to O2-dependent activity of the compounds. Since this experimental design utilized aliquots of the same samples under different gas conditions, it ensured that the assay was free of any potential errors associated with variability in hematocrit and accuracy in drug concentrations.
We conducted two studies to test the antisickling property of VZHE-039 under anoxia to establish the secondary mechanism of action. In the first study, we conducted antisickling studies as described above and also previously reported (2.5% O2)[33], using 2 mM concentrations of VZHE-039, and the controls vanillin, TD-7 and Voxelotor. After 1 h, aliquot samples were fixed with 2% glutaraldehyde without exposure to air. Then the incubation chamber was opened and exposed to air for 15 min to ensure complete re-oxygenation and reversal of the sickled cells to normal round cells. Reversal was confirmed by microscopy. The incubation chamber was then closed, and the assay was repeated under 100% nitrogen gas for 30 min, at which point aliquots were obtained and fixed. Aliquot samples were then subjected to microscopic morphological analysis of bright field images as previously described. Resulting sickled cells (percentages) were compared across samples, and between aliquots of the same samples that had been obtained either under 2.5% oxygen or 100% nitrogen.

[5] = experimental animals and humans; cited from earlier work
Hb [6] = target: T1, Hb; assay: Oxygen equilibrium (P50 shift) of lysates from SS cells, Hemox Analyzer; format: cell-based; details: 20% hematocrit
Method: (§1) For our previously studied compounds (e.g., INN-312, TD-7, SAJ-310, INN-298) that incorporate methoxyPy substitution to vanillin analogs, we observed a significant increase in functional and biological activity as a result of increased protein interactions[31],[33],[35],[36]. We therefore expected similar effects for VZHE-039, which we tested by following VZHE-039 activity (measured by Hb adduct formation, P50-shift and RBC sickling inhibition) using SS blood. Briefly, we incubated 0.5, 1, and 2 mM concentrations of VZHE-039 with whole blood suspensions from subjects with homozygous SCD (Hct of 20%) under hypoxic conditions (2.5% O2/97.5% N2) at 37 °C for 2 h for expected peak adduct. Aliquot blood samples were drawn into a fixative (2% glutaraldehyde solution), and sickling was assessed by microscopy[31],[33],[35],[36]. Aliquot samples were also subjected to cation-exchange HPLC analyses to assess the degree of Hb modification to the high-affinity adduct form (Hb adduct formation), as well as standard O2 equilibrium curves (OEC) to assess P50-shifts using hemox analyzer[31],[33],[35],[36]. […] The improved potency of Voxelotor has been attributed to reduced binding stoichiometry, i.e. while Voxelotor binds Hb at a 1:1 ratio, VZHE-039 binds Hb at a 2:1 ratio. […] This observation, as will be discussed later is likely due to a meaningful contribution from the novel O2-independent antisickling activity as result of the strong contact with the αF-helix.
(§2) The effect of VZHE-039 on RBC sickling, Hb modification, and Hb oxygen equilibrium was studied utilizing samples from consented individuals with homozygous SCD following previous procedure. Briefly, blood suspended in Hemox buffer and supplemented with glucose and bovine serum albumin, to a final hematocrit of 20% were incubated under air in the absence or presence of 0.5 mM, 1 mM and 2 mM VZHE-039 at 37 °C for 1 h. This was followed by incubating the suspensions under hypoxic conditions (2.5% O2/97.5% N2) at 37 °C for 2 h. Aliquot samples were obtained and fixed with 2% glutaraldehyde solution without exposure to air, and then subjected to microscopic morphological analysis of bright field images (at × 40 magnification) of single layer cells on an Olympus BX40 microscope fitted with an Infinity 2 camera (Olympus), and the coupled Image Capture software. Leftover samples were washed in phosphate-buffer saline, and hemolyzed in hypotonic lysis buffer for subsequent Hb-modification and oxygen equilibrium analyses.
For the oxygen equilibrium studies, 100 μL aliquot samples from the above clarified lysate were added to 4 mL of 0.1 M potassium phosphate buffer, pH 7.0, in cuvettes and subjected to hemoximetry analysis using a Hemox Analyzer (TCS Scientific Corp.) to determine the P50 values.

SS cells [7] = assay: Antisickling study with SS cells under hypoxia (2.5% O2); format: cell-based, human; details: Homo sapiens, 20% hematocrit, […] O2, 37 °C, read-out: Sickling Inhibition
Method: as §1, §2

[8] = cited from earlier work
SS RBCs = assay: pO2-dependent degree of sickling in Hemox Analyzer; format: cell-based, human; details: 2 mM, Hct 20%
Method: In a confirmatory study, a pO2 dependent degree of sickling of VZHE-039 at 1 and 2 mM doses, with Voxelotor as a control was performed using a Hemox analyzer. […] Oksenberg et al.reported similar observations with Voxelotor[28], where the compound lost its potent antisickling activity at low pO2 values.
The second study established pO2 dependent degree of sickling of VZHE-039, with Voxelotor as a control. Concurrently, blood samples, hematocrit 20%, were incubated without any drug (control) or with 1, or 2 mM VZHE-039 at 37 °C for 1 h. A second control sample was incubated with 2 mM Voxelotor. At conclusion, 100 uL aliquots of each suspension were mixed with 2.5 mL Hemox buffer (pH 7.4, supplemented with antifoam), and transferred into the sample chamber of the Hemox Analyzer. Compressed air was then flushed through the sample to ensure complete oxygenation (at 150 mmHg). Nitrogen gas was then introduced into the sample chamber, and 50 uL aliquots were obtained and fixed at defined pO2 values. At conclusion, all fixed samples were subjected to microscopic analysis for their degree of sickling, and results were plotted using Prism Graph Pad software. The experiments were conducted in three replicates on different days, and mean and standard deviation values are reported.

HbS [9] = target: T3, HbS; assay: Hb modification (HbS adduct formation) by cation-exchange HPLC of lysates from SS cells; format: cell-based; details: for Hb Modification: SS cells, 20% hematocrit, HPLC of hemolysates
Method: as §1, §2
Finally, for the Hb adduct formation studies, the above clarified lysates were subjected to cation-exchange HPLC (Hitachi D-7000 Series, Hitachi Instruments, Inc., San Jose, CA), using a weak cation-exchange column (Poly CAT A: 30 mm × 4.6 mm, Poly LC, Inc., Columbia, MD). A commercial standard consisting of approximately equal amounts of composite HbF, HbA, HbS and HbC (Helena Laboratories, Beaumont, TX), was utilized as the reference for isotypes. The areas of new peaks, representing HbS adducts, were obtained, calculated as percentage fractions of total Hb area, and reported as levels of modified Hb.

## COc1ccc(OCc2cccc(CO)n2)c(C=O)c1 [TD-7]
Hb [1]; 0.5 mM
  P50-shift: 10%
Hb [1]; 1 mM
  P50-shift: 28%
Hb [1]; 2 mM
  P50-shift: 48%
HbA
  Time of maximum effect (P50-shift): 1 h
HbA; relative to maximum effect
  Reduction in activity (P50-shift) at 24 h: ~ 45%
HbS [2]; 0.5 mM
  Hb Modification: 26%
HbS [2]; 1 mM
  Hb Modification: 45%
HbS [2]; 2 mM
  Hb Modification: 74%
SS cells [3]; 0.5 mM
  RBC sickling inhibition: 16%
SS cells [3]; 1 mM
  RBC sickling inhibition: 29%
SS cells [3]; 2 mM
  RBC sickling inhibition: 85%
SS cells [4]
  Antisickling effect under anoxia (in words): showed some antisickling effect under anoxia, it was significantly less potent than VZHE-039

## O=Cc1c(O)cccc1OCc1ccc(C(=O)O)cc1 [Tucaresol, 4[2-formyl-3-hydroxyphenoxymethyl] benzoic acid]
[5]
  Half-life: > 12 h

## COc1cc(C=O)ccc1O [Vanillin, vanillin]
HbA; 1-24 h
  Time course of P50-shift (in words): did not have any effects beyond 4 h
SS cells [4]
  Antisickling effect under anoxia (in words): showed no effect under anoxic conditions

## CC(C)n1nccc1-c1ncccc1COc1cccc(O)c1C=O [Voxelotor, reference compound]
Hb [6]; 0.5 mM
  P50 Shift (ΔP50): 41%
Hb [6]; 1 mM
  P50 Shift (ΔP50): 80%
[5]
  Half-life: > 12 h
SS cells [7]; 0.5 mM
  inhibition at 500 µM: 56%
SS cells [7]; 1 mM
  inhibition at 1000 µM: 98%
[8]
  Partitioning into the RBC compartment: 90%
SS RBCs
  pO2-dependent sickling inhibition (in words): completely prevent sickling at high pO2; also recorded: lost this capability at low pO2
HbS [9]; 0.5 mM
  Hb Modification: 55%
HbS [9]; 1 mM
  Hb Modification: 100%
HbS [9]; 2 mM, samples of the anoxia study
  Hb modification (in words): complete Hb modification to the high-O2-affinity form
SS cells [4]
  Antisickling effect under anoxia (in words): lost its inherent antisickling effects remarkably under anoxic conditions
